This is an account of results in PubChem BioAssay (NCI).

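Where inhibition never reached the appropriate level, the endpoint shown equals the highest concentration tested. Otherwise, values were interpolated linearly from a five-concentration, 48-hour dose response in 96-well plates. Abbreviation: GI50, concentration required for 50% inhibition of growth. TGI: total growth inhibition.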

Some test systems named below: CAKI-1 renal; HL-60(TB) leukemia; HOP-92 NSCLC; NCI-H226 lung; NCI-H23 lung; NCI-H460 lung; OVCAR-4 ovarian; SNB-75 CNS; SR leukemia; T-47D breast.
Common to all, as to experiment: NCI-60 cell line screen, 48 h

Regarding `COCCn1c2c([n+](Cc3cnccn3)c1C)C(=O)c1ccccc1C2=O`, the GI50 is 2.72 µM in the test with CAKI-1 renal; under 0.01 µM in the test with HL-60(TB) leukemia; 0.0209 µM in the test on HOP-92 NSCLC; under 0.0143 µM with NCI-H226 lung; under 0.01 µM in the test on NCI-H23 lung; 0.0208 µM in the test with NCI-H460 lung. Further, the GI50 with OVCAR-4 ovarian is under 0.01 µM; in the test on SNB-75 CNS, 0.0313 µM; with SR leukemia, under 0.0108 µM; with T-47D breast it was 0.0246 µM. Also, the TGI was over 100 µM in the test on CAKI-1 renal; under 0.01 µM in the test on HL-60(TB) leukemia; 0.0549 µM with HOP-92 NSCLC; 0.0293 µM with NCI-H226 lung; under 0.0113 µM with NCI-H23 lung; 0.112 µM in the test with NCI-H460 lung. The TGI in the test on OVCAR-4 ovarian amounted to 0.012 µM; with SNB-75 CNS, 0.107 µM; in the test with SR leukemia it was 6.85 µM; in the test with T-47D breast it was 0.153 µM.

In the case of `O=C(/C=C/C=C/c1ccc2c(c1)OCO2)N/N=C\c1ccc(O)cc1O`, the GI50 is 2.24 µM in the test on CAKI-1 renal; 3.58 µM with HL-60(TB) leukemia; 1.98 µM with HOP-92 NSCLC; 2.78 µM with NCI-H226 lung; 2.11 µM with NCI-H23 lung; 1.58 µM with NCI-H460 lung. In addition, the GI50 is 0.459 µM in the test with OVCAR-4 ovarian, 1.89 µM in the test with SNB-75 CNS, 0.571 µM with SR leukemia and 2.55 µM in the test with T-47D breast. Moreover, the TGI in the test on CAKI-1 renal was 15.2 µM; in the test with HL-60(TB) leukemia, 24.1 µM; in the test with HOP-92 NSCLC, 13.5 µM; in the test on NCI-H226 lung, 11.3 µM; in the test on NCI-H23 lung it was 10.6 µM; with NCI-H460 lung it was 10.5 µM. Further, the TGI with OVCAR-4 ovarian is 9.82 µM; with SNB-75 CNS it was 9.41 µM; in the test with SR leukemia, over 100 µM; in the test with T-47D breast, 24 µM.

Take `O=C(CN1CCN(C(=O)c2ccco2)CC1)Nc1ccc(Cl)cc1C(=O)c1ccccc1Cl`: the GI50 with CAKI-1 renal was 0.0273 µM; with HL-60(TB) leukemia, 1.31 µM; in the test on HOP-92 NSCLC, 4.45 µM; in the test on NCI-H226 lung, 13.3 µM; in the test on NCI-H23 lung, 10.4 µM; with NCI-H460 lung, 13.9 µM. The GI50 is 5.91 µM with OVCAR-4 ovarian, 2.73 µM with SNB-75 CNS, 0.896 µM in the test with SR leukemia and 2.32 µM in the test with T-47D breast. Further, the TGI is 6.42 µM with CAKI-1 renal; 2.95 µM in the test with HL-60(TB) leukemia; 24.1 µM in the test on HOP-92 NSCLC; 44.8 µM with NCI-H226 lung; 62.2 µM with NCI-H23 lung; 29 µM with NCI-H460 lung. The TGI was found to be 31.5 µM with OVCAR-4 ovarian, 28.3 µM in the test with SNB-75 CNS, 2.76 µM in the test with SR leukemia and 15.4 µM in the test with T-47D breast.

Turning to `COc1cc2c(cc1[N+](=O)[O-])C(=O)C(Br)(Br)CCC2`, the TGI is 7.8 µM in the test with CAKI-1 renal; 21 µM in the test on HL-60(TB) leukemia; 17 µM in the test with HOP-92 NSCLC; 10.7 µM in the test on NCI-H226 lung; 8.59 µM in the test on NCI-H23 lung; 20.1 µM in the test on NCI-H460 lung. In addition, the TGI with OVCAR-4 ovarian is 15.7 µM; with SNB-75 CNS, 25.8 µM; in the test with SR leukemia it was 4.96 µM; with T-47D breast it was over 27.2 µM.

Regarding `Cc1cc(C)c2c(c1)N(C)c1ncnc(-n3cnc4cc(C)ccc43)c1CC2C` (stereo not given), the GI50 in the test with CAKI-1 renal was 3.37 µM; in the test with HL-60(TB) leukemia, 2.46 µM; in the test on HOP-92 NSCLC it was 4.1 µM; with NCI-H226 lung, 3.1 µM; with NCI-H23 lung, 4.87 µM; with NCI-H460 lung, 3.4 µM. For the same molecule, the GI50 in the test on OVCAR-4 ovarian was 4.18 µM; in the test on SNB-75 CNS, 2.8 µM; in the test on SR leukemia, 0.787 µM; in the test on T-47D breast it was 4.17 µM. The TGI in the test with CAKI-1 renal is 70.2 µM; with HL-60(TB) leukemia, 9.36 µM; in the test on HOP-92 NSCLC it was 32.9 µM; in the test with NCI-H226 lung, 17.9 µM; in the test with NCI-H23 lung, over 100 µM; in the test on NCI-H460 lung, 11.4 µM. In addition, the TGI turned out to be 47.4 µM in the test with OVCAR-4 ovarian, 13.2 µM with SNB-75 CNS, 8.62 µM in the test on SR leukemia and 24.9 µM in the test with T-47D breast.
